Several values for one entry are separate records, joined by “and”; a condition that tells them apart may be missing. Identical values can stand only once. Toxic doses and inconclusive results are not listed.
Test system: L1210 leukemia ip in BDF1 mice, survival T/C
Experiment: NCI In Vivo Anticancer Drug Screen. Data for tumor model L1210 Leukemia (intraperitoneal) in B6D2F1 (BDF1) mice
Details: endpoint: mean survival time, higher = longer survival
Outline: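 Survival endpoint. Drug-treated group vs vehicle group, expressed as T divided by C. Tumor passaged by transplantation.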

[1] = dose: 100.0 mg/kg/injection, schedule: Q01DX009 (ip), vehicle: saline with Tween-80
[2] = dose: 100.0 mg/kg/injection, schedule: Q04DX003 (ip), vehicle: saline with Tween-80
[3] = dose: 200.0 mg/kg/injection, schedule: Q01DX009 (ip), vehicle: saline with Tween-80
[4] = dose: 200.0 mg/kg/injection, schedule: Q04DX003 (ip), vehicle: saline with Tween-80
[5] = dose: 400.0 mg/kg/injection, schedule: Q04DX003 (ip), vehicle: saline with Tween-80
[6] = dose: 100.0 mg/kg/injection, schedule: Q01DX009 (ip), vehicle: saline
[7] = dose: 200.0 mg/kg/injection, schedule: Q01DX009 (ip), vehicle: saline
[8] = dose: 100.0 mg/kg/injection, schedule: Q04DX003 (ip), vehicle: saline
[9] = dose: 200.0 mg/kg/injection, schedule: Q04DX003 (ip), vehicle: saline
[10] = dose: 400.0 mg/kg/injection, schedule: Q04DX003 (ip), vehicle: saline
[11] = dose: 100.0 mg/kg/injection, schedule: Q01DX009 (ip), vehicle: Klucel (hydroxypropylcellulose) (HPC)
[12] = dose: 200.0 mg/kg/injection, schedule: Q01DX009 (ip), vehicle: Klucel (hydroxypropylcellulose) (HPC)
[13] = dose: 400.0 mg/kg/injection, schedule: Q01DX009 (ip), vehicle: Klucel (hydroxypropylcellulose) (HPC)
[14] = dose: 100.0 mg/kg/injection, schedule: Q01DX001 (ip), vehicle: saline
[15] = dose: 200.0 mg/kg/injection, schedule: Q01DX001 (ip), vehicle: saline
[16] = dose: 400.0 mg/kg/injection, schedule: Q01DX001 (ip), vehicle: saline
[17] = dose: 200.0 mg/kg/injection, schedule: Q04DX002 (ip), vehicle: saline with Tween-80
[18] = dose: 400.0 mg/kg/injection, schedule: Q04DX002 (ip), vehicle: saline with Tween-80
[19] = dose: 50.0 mg/kg/injection, schedule: Q01DX009 (ip), vehicle: saline
[20] = dose: 100.0 mg/kg/injection, schedule: Q01DX001 (ip), vehicle: Klucel (hydroxypropylcellulose) (HPC)
[21] = dose: 200.0 mg/kg/injection, schedule: Q01DX001 (ip), vehicle: Klucel (hydroxypropylcellulose) (HPC)
[22] = dose: 400.0 mg/kg/injection, schedule: Q01DX001 (ip), vehicle: Klucel (hydroxypropylcellulose) (HPC)

`CN(N=O)C(=O)Nc1cccc2cccnc12` was tested, and the T/C (dose: 6.25 mg/kg/injection, schedule: Q01DX Z (ip), vehicle: carboxymethylcellulose (CMC)) was 101 % of control, the T/C (dose: 12.5 mg/kg/injection, schedule: Q01DX Z (ip), vehicle: carboxymethylcellulose (CMC)) was 106 % of control and the T/C (dose: 25.0 mg/kg/injection, schedule: Q01DX Z (ip), vehicle: carboxymethylcellulose (CMC)) was 124 % of control.
For `C=CCC(CC)C(=O)Cl` (stereo not drawn), the T/C [1] was 104 % of control, the T/C [2] was 94 % of control and the T/C [3] was 91 % of control. For the same molecule, the T/C [4] was 94 % of control, the T/C (dose: 400.0 mg/kg/injection, schedule: Q01DX009 (ip), vehicle: saline with Tween-80) was 91 % of control and the T/C [5] was 102 % of control.
`COc1ccc(/C=C2/COC/C(=C\c3ccc(OC)cc3)C2=O)cc1` was tested, and the T/C [6] was 91 % of control, the T/C [7] was 91 % of control and the T/C (dose: 400.0 mg/kg/injection, schedule: Q01DX009 (ip), vehicle: saline) was 91 % of control.
For `OC(CBr)c1ccc(Cl)cc1` (stereo not drawn), the T/C [1] was 96 % of control, the T/C [2] was 98 % of control and the T/C [3] was 96 % of control. For the same molecule, the T/C [4] was 104 % of control and the T/C [5] was 89 % of control.
In the case of `N#Cc1ccccc1N=NNc1ccc(-c2nc(N)nc(N)n2)cc1`, the T/C [8] is reported as 94 % of control, the T/C [9] is reported as 89 % of control and the T/C [10] is reported as 89 % of control.
With `O=C(Nc1ccc(C(=O)Nc2ccc(C3=NCCN3)cc2)cc1)Nc1ccc(C(=O)Nc2ccc(C3=NCCN3)cc2)cc1` the T/C (dose: 15.0 mg/kg/injection, schedule: Q01DX Z (ip), vehicle: methylcellulose (MC)) was 102 % of control, the T/C (dose: 30.0 mg/kg/injection, schedule: Q01DX Z (ip), vehicle: methylcellulose (MC)) was 103 % of control and the T/C (dose: 60.0 mg/kg/injection, schedule: Q01DX Z (ip), vehicle: methylcellulose (MC)) was 101 % of control. The T/C (dose: 62.0 mg/kg/injection, schedule: Q01DX Z (ip), vehicle: carboxymethylcellulose (CMC)) was 91 % of control, the T/C (dose: 120.0 mg/kg/injection, schedule: Q01DX Z (ip), vehicle: methylcellulose (MC)) was 103 % of control and the T/C (dose: 125.0 mg/kg/injection, schedule: Q01DX Z (ip), vehicle: carboxymethylcellulose (CMC)) was 91 % of control. For the same molecule, the T/C (dose: 250.0 mg/kg/injection, schedule: Q01DX Z (ip), vehicle: carboxymethylcellulose (CMC)) was 96 % of control.
In the case of `Cc1cc(C)c(C(O)C(=O)O)c(C)c1` (stereo not drawn), the T/C (dose: 75.0 mg/kg/injection, schedule: Q01DX001 (ip), vehicle: saline) is reported as 108 % of control, the T/C (dose: 150.0 mg/kg/injection, schedule: Q01DX001 (ip), vehicle: saline) is reported as 97 % of control and the T/C (dose: 300.0 mg/kg/injection, schedule: Q01DX001 (ip), vehicle: saline) is reported as 101 % of control.
`NC1(C(=O)NCC(=O)O)C2CC3CC(C2)CC1C3` (stereo not drawn) was tested, and the T/C (dose: 25.0 mg/kg/injection, schedule: Q01DX009 (ip), vehicle: Klucel (hydroxypropylcellulose) (HPC)) was 94 % of control, the T/C (dose: 50.0 mg/kg/injection, schedule: Q01DX009 (ip), vehicle: Klucel (hydroxypropylcellulose) (HPC)) was 100 % of control and the T/C [11] was 97 % of control and 99 % of control. The T/C [12] was 103 % of control and the T/C [13] was 102 % of control.
With `S=P1(c2ccccc2)Nc2cc3ccccc3cc2N1` the T/C [2] was 97 % of control, the T/C [4] was 100 % of control and the T/C [5] was 96 % of control.
`CCCCC#CCCl` was tested, and the T/C [14] was 102 % of control, the T/C [6] was 94 % of control and the T/C [15] was 103 % of control. The T/C [16] was 111 % of control.
In the case of `CCOc1ccccc1NCN1C(=O)c2ccccc2C1=O`, the T/C [1] is reported as 90 % of control, the T/C [17] is reported as 223 % of control and the T/C [18] is reported as 91 % of control.
In the case of `C=[CH][Sn]([c]1ccccc1)([c]1ccccc1)[c]1ccccc1`, the T/C [19] is reported as 92 % of control and 104 % of control and 109 % of control, the T/C [6] is reported as 106 % of control and 114 % of control and 89 % of control and the T/C [7] is reported as 96 % of control and 101 % of control (2×).
In the case of `CC1(C)CCC2(CC1)CC(=O)OC2=O`, the T/C [2] is reported as 95 % of control, the T/C [4] is reported as 97 % of control and the T/C [5] is reported as 98 % of control.
With `CCCCOCCN` the T/C (dose: 12.5 mg/kg/injection, schedule: Q01DX009 (ip), vehicle: saline) was 104 % of control, the T/C (dose: 25.0 mg/kg/injection, schedule: Q01DX009 (ip), vehicle: saline) was 101 % of control and the T/C [19] was 106 % of control.
For `O=C(c1ccccc1)c1ccc(Br)s1`, the T/C (dose: 100.0 mg/kg/injection, schedule: Q04DX003 (ip), vehicle: Klucel (hydroxypropylcellulose) (HPC)) was 96 % of control, the T/C (dose: 200.0 mg/kg/injection, schedule: Q04DX003 (ip), vehicle: Klucel (hydroxypropylcellulose) (HPC)) was 97 % of control and the T/C (dose: 400.0 mg/kg/injection, schedule: Q04DX003 (ip), vehicle: Klucel (hydroxypropylcellulose) (HPC)) was 94 % of control.
`NC(CCC(=O)NC(CSCCC(=O)c1ccccc1)C(=O)NCC(=O)O)C(=O)O` (stereo not drawn) was tested, and the T/C (dose: 25.0 mg/kg/injection, schedule: Q01DX009 (ip), vehicle: water) was 96 % of control, the T/C (dose: 50.0 mg/kg/injection, schedule: Q01DX009 (ip), vehicle: water) was 91 % of control and the T/C (dose: 100.0 mg/kg/injection, schedule: Q01DX009 (ip), vehicle: water) was 94 % of control. The T/C (dose: 200.0 mg/kg/injection, schedule: Q01DX009 (ip), vehicle: water) was 92 % of control and the T/C (dose: 400.0 mg/kg/injection, schedule: Q01DX009 (ip), vehicle: water) was 97 % of control.
`CC(=O)/C(=C\c1ccccc1)CNC(C)(C)C` was tested, and the T/C [14] was 92 % of control.
For `CC(=N/Nc1ccccc1)/C(C)=N/Nc1ccccc1`, the T/C [20] was 101 % of control, the T/C [11] was 88 % of control and the T/C [21] was 91 % of control. The T/C [12] was 95 % of control, the T/C [22] was 102 % of control and the T/C [13] was 98 % of control.
`CN1CCC=C(CO)C1` was tested, and the T/C [8] was 97 % of control, the T/C [9] was 107 % of control and the T/C [10] was 103 % of control.
`CC(C)C(C)/C=C\C(C)C1CCC2C3=CCC4CC(O)CCC4(C)C3CCC21C` (stereo not drawn) was tested, and the T/C [20] was 97 % of control, the T/C [21] was 97 % of control and the T/C [22] was 97 % of control.
For `C#CCOc1ccccc1O`, the T/C (dose: 100.0 mg/kg/injection, schedule: Q01DX009 (ip), vehicle: acetone) was 94 % of control and 91 % of control, the T/C (dose: 200.0 mg/kg/injection, schedule: Q01DX009 (ip), vehicle: acetone) was 94 % of control and the T/C (dose: 400.0 mg/kg/injection, schedule: Q01DX009 (ip), vehicle: acetone) was 100 % of control and 92 % of control.
`COc1cc(C=Nc2ccc3c(c2)Cc2ccccc2-3)ccc1O` was tested, and the T/C (dose: 100.0 mg/kg/injection, schedule: Q04DX003 (ip), vehicle: saline sonified) was 94 % of control, the T/C (dose: 200.0 mg/kg/injection, schedule: Q04DX003 (ip), vehicle: saline sonified) was 97 % of control and the T/C (dose: 400.0 mg/kg/injection, schedule: Q04DX003 (ip), vehicle: saline sonified) was 95 % of control.
`O=Cc1cccn1-c1cccc2c(-n3cccc3C=O)cccc12` was tested, and the T/C (dose: 25.0 mg/kg/injection, schedule: Q04DX002 (ip), vehicle: Klucel (hydroxypropylcellulose) (HPC)) was 97 % of control, the T/C (dose: 50.0 mg/kg/injection, schedule: Q04DX002 (ip), vehicle: Klucel (hydroxypropylcellulose) (HPC)) was 93 % of control and the T/C (dose: 100.0 mg/kg/injection, schedule: Q04DX002 (ip), vehicle: Klucel (hydroxypropylcellulose) (HPC)) was 97 % of control.
With `C=CC[P+](CCCC)(CCCC)CCCC` the T/C (dose: 6.25 mg/kg/injection, schedule: Q04DX003 (ip), vehicle: saline) was 102 % of control and the T/C (dose: 12.5 mg/kg/injection, schedule: Q04DX003 (ip), vehicle: saline) was 91 % of control.
For `O=c1[nH]c2nc(SCc3ccccc3)n(Cc3ccccc3)c2c(=O)n1OS(=O)(=O)c1ccccc1`, the T/C (dose: 100.0 mg/kg/injection, schedule: Q04DX002 (ip), vehicle: saline with Tween-80) was 101 % of control and 108 % of control, the T/C [2] was 96 % of control and the T/C [17] was 94 % of control and 96 % of control. The T/C [4] was 94 % of control, the T/C [18] was 94 % of control and 96 % of control and the T/C [5] was 91 % of control.
For `CCOC(Nc1ccc([N+](=O)[O-])cc1)C(=O)c1ccccc1` (stereo not drawn), the T/C [14] was 93 % of control, the T/C [15] was 97 % of control and the T/C [16] was 100 % of control.
With `CCN(CC#N)c1ccc(Nc2cc(Cl)ccc2Cl)cc1` the T/C (dose: 75.0 mg/kg/injection, schedule: Q01DX001 (ip), vehicle: other) was 107 % of control, the T/C (dose: 150.0 mg/kg/injection, schedule: Q01DX001 (ip), vehicle: other) was 96 % of control and the T/C (dose: 300.0 mg/kg/injection, schedule: Q01DX001 (ip), vehicle: other) was 100 % of control.
